In patent publication US12527779B2, “Prostaglandin E2 (PGE2) EP4 receptor antagonists” (Domain Therapeutics, priority 2019, dated 2026) one finds IC50 data, which are given here for 26 molecules.

Counter-ions that a name gives are not always drawn.

T1 sequence (P35408 whole entry): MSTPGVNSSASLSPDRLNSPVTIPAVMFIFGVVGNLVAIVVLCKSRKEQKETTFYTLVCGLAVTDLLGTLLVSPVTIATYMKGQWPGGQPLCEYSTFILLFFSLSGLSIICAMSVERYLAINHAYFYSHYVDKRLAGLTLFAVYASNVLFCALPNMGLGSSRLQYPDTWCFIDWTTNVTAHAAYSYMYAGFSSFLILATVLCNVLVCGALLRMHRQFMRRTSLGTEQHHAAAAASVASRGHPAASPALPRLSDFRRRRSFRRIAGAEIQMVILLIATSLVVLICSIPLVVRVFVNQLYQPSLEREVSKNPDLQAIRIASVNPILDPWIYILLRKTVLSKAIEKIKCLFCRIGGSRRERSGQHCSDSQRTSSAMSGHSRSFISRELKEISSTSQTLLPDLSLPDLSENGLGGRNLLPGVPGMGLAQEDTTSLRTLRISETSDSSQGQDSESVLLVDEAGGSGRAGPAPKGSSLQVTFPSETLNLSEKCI

The assay concerns the target T1, human EP4 (hEP4) receptor (Homo sapiens, UniProt P35408).
T1 construct: expressed in transfected cells; host or cells: HEK-293 T cells, transient co-transfection with polyethylenimine
The assay is described as follows: In vitro human EP4 functional antagonist activity using BRET biosensors (cAMP EPAC biosensor, TCS2510 stimulation). It is filed as cell-based. The conditions noted are these: antagonist activity vs EC60 TCS2510, hEP4 in HEK-293 T cells. The protocol: Examples of the present invention were tested successively for their agonist and antagonist activities on human EP4 (hEP4) receptor transiently over-expressed in HEK-293 T cells. […] The assay used to measure compound activity is based on the BRET technology. The unimolecular cAMP biosensor used to detect intracellular cAMP levels following GPCR stimulation consists of the EPAC protein fused to N- and C-terminal of Luciferase and GFP respectively.
Cell Culture and Transfection: HEK-293 T cells are maintained in Dulbecco's Modified Eagle's Medium supplemented with 10% Foetal Calf Serum, 1% Penicillin/Streptomycin at 37° C./5% CO2. Cells are co-transfected using polyethylenimine (25 kDa linear) with two DNA plasmids encoding hEP4, EPAC fused to luciferase (BRET donor) and to GFP (BRET acceptor). After transfection, cells are cultured (40,000 cells per well) for 48 h at 37° C./5% CO2.
BRET assay: Receptor activity is detected by changes in BRET signal. On the day of the assay, cells are rinsed and incubated in assay buffer (1.8 mM CaCl2, 1 mM MgCl2, 2.7 mM KCl, 137 mM NaCl, 0.4 mM NaH2PO4, 5.5 mM D-Glucose, 11.9 mM NaHCO3, 25 mM Hepes). Then, plates are equilibrated 1 h at 22° C. before adding compounds. Compounds and luciferase substrate are added to the cells using an automated device (Freedom Evo®, Tecan) and BRET readings are collected on EnVision (PerkinElmer) with specific filters (410 nm BW 80 nm, 515 nm BW 30 nm). Agonist and antagonist activities of compounds are consecutively evaluated on the same cell plate. Agonist activity is first measured after 5 min incubation with compound alone on the cells. Then, cells are stimulated by an EC60 TCS2510 concentration and luminescence is recorded for additional 10 min. EC60 TCS2510 concentration is the concentration giving 60% of the maximal TCS2510 response. Agonist or antagonist activities are evaluated in comparison to basal signals evoked by assay buffer or EC60 TCS2510 alone, respectively.
For IC50 determination, a dose-response test is performed using 10 concentrations (ranging over 4.5 logs) of each compound. Dose-response curves are fitted using the sigmoidal dose-response (variable slope) analysis in GraphPad Prism software (GraphPad Software) and IC50 of antagonist activity is calculated. Dose-response experiments are performed in duplicate, in two independent experiments. IC50 values are categorized as following: A: IC50<0.1 μM; B: IC50<1 μM.
A general note: Bioluminescence resonance energy transfer reports proximity on the nanometre scale.
The IC50 is the concentration that inhibits the measured activity by half. `C[C@H](NC(=O)C(C)(C)N1CC[C@@H](Oc2cccc(C(F)(F)F)c2)C1)c1ccc(C(N)=O)cc1` [Example 173, 4-[(1S)-1-[[2-[(3R)-3-[3-(Trifluoromethyl)phenoxy]pyrrolidin-1-yl]-2-methylpropane-carbonyl]amino]ethyl]benzamide, hydrochloride] displayed an IC50 of less than 100 nM. `CN(CCOc1ccc(Cl)cc1)C1(C(=O)NC2(c3ccc(C(=O)O)cc3)CC2)CCOCC1` [Example 31, 4-[1-[[4-[2-(4-Chlorophenoxy)ethyl-methyl-amino]tetrahydropyran-4-carbonyl]amino]cyclopropyl]benzoic acid, hydrochloride] had a 50% inhibitory concentration (IC50) of less than 1000 nM.

`C[C@H](NC(=O)C1(N2CC[C@@H](Oc3cccc(Cl)c3)C2)CCCCC1)c1ccc(C(=O)O)cc1` [Example 155, 4-[(1S)-1-[[1-[(3R)-3-(3-Chlorophenoxy)pyrrolidin-1-yl]cyclohexane-1-carbonyl]amino]ethyl]benzoic acid, hydrochloride]: the half-inhibitory concentration (IC50) is less than 100 nM. Turning to `C[C@H](NC(=O)C1(N2CC[C@@H](Oc3cccc(C(F)(F)F)c3)C2)CCOCC1)c1cccc(Cl)c1` [Example 191, N—((S)-1-(3-Chlorophenyl)ethyl)-4-((R)-3-(3-(trifluoromethyl)phenoxy)pyrrolidin-1-yl)tetrahydro-2H-pyran-4-carboxamide, hydrochloride], the half-inhibitory concentration (IC50) was less than 1000 nM. In the case of `C[C@H](NC(=O)C1(N2CC[C@@H](Oc3cccc(C(F)(F)F)c3)C2)CCOCC1)c1ccc(S(C)(=N)=O)cc1` (stereo partly drawn) [Example 180, N-((1S)-1-(4-(S-Methylsulfonimidoyl)phenyl)ethyl)-4-((R)-3-(3-(trifluoromethyl)phenoxy)pyrrolidin-1-yl)tetrahydro-2H-pyran-4-carboxamide, hydrochloride] it was less than 100 nM; in that of `CN(CCOc1cccc(Cl)c1)C1(C(=O)NC2(c3ccc(C(=O)O)cc3)CC2)CCOC1` (centres unmarked) [Example 77, 4-[1-[[3-[2-(3-Chlorophenoxy)ethyl-methyl-amino]tetrahydrofuran-3-carbonyl]amino]cyclopropyl]benzoic acid, hydrochloride], less than 100 nM; in that of `C[C@H](NC(=O)C1(NCCOc2ccccc2)CC2(CCC2)C1)c1ccc(C(=O)O)cc1` [Example 68, 4-[(1S)-1-[[2-(2-Phenoxyethylamino)spiro[3.3]heptane-2-carbonyl]amino]ethyl]benzoic acid, hydrochloride], less than 1000 nM. The molecule `C[C@H](NC(=O)C1(NCCOc2ccc(Cl)c(Cl)c2)CCOCC1)c1ccc(C(=O)O)cc1` [Example 17, 4-[(1S)-1-[[4-[2-(3,4-Dichlorophenoxy)ethylamino]tetrahydropyran-4-carbonyl]amino]ethyl]benzoic acid, hydrochloride] showed an IC50 of less than 1000 nM. Regarding `C[C@H](NC(=O)C1(N2CC[C@@H](Oc3cccc(C(F)(F)F)c3)C2)CCC(F)(F)CC1)c1ccc(C(=O)O)cc1` [Example 163, 4-[(1S)-1-[[1-[(3R)-3-[3-(Trifluoromethyl)phenoxy]pyrrolidin-1-yl]-4,4-difluorocyclohexane-1-carbonyl]amino]ethyl]benzoic acid, hydrochloride], the IC50 was less than 100 nM.

`CNC(=O)c1ccc([C@H](C)NC(=O)C2(N3CC[C@@H](Oc4cccc(C(F)(F)F)c4)C3)CCOCC2)cc1` [Example 169, hydrochloride] showed an IC50 of less than 100 nM. The molecule `C[C@H](NC(=O)C1(c2cc(OCC3CCCCC3)ccn2)CCOCC1)c1ccc(C(=O)O)cc1` [Example 117, 4-[(1S)-1-[[4-[4-(Cyclohexylmethoxy)-2-pyridyl]tetrahydropyran-4-carbonyl]amino]ethyl]benzoic acid] displayed an IC50 of less than 1000 nM.

As for `COc1cccc(O[C@@H]2CCN(C3(C(=O)N[C@@H](C)c4ccc(C(=O)O)cc4)CCOCC3)C2)c1` [Example 148, 4-[(1S)-1-[[4-[(3R)-3-(3-Methoxyphenoxy)pyrrolidin-1-yl]tetrahydropyran-4-carbonyl]amino]ethyl]benzoic acid, hydrochloride], the IC50 was less than 100 nM. On to `CN(CCOc1ccccc1)C1(C(=O)NC2(c3ccc(C(=O)O)cc3Cl)CC2)CCOCC1` [Example 52, 3-Chloro-4-[1-[[4-[methyl(2-phenoxyethyl)amino]tetrahydropyran-4-carbonyl]amino]cyclopropyl]benzoic acid, hydrochloride], for which the IC50 was less than 100 nM. `CN(CCOc1ccccc1)C1(C(=O)NC2(c3ccc(C(=O)O)cn3)CC2)CCOCC1` [Example 54, 6-[1-[[4-[Methyl(2-phenoxyethyl)amino]tetrahydropyran-4-carbonyl]amino]cyclopropyl]pyridine-3-carboxylic acid, hydrochloride]: the IC50 is less than 1000 nM. `C[C@H](NC(=O)C1(NCCOc2cccc(Cl)c2)CCCC1)c1ccc(C(=O)O)cc1` [Example 63, 4-[(1S)-1-[[1-[2-(3-Chlorophenoxy)ethylamino]cyclopentanecarbonyl]amino]ethyl]benzoic acid, hydrochloride] had an IC50 of less than 100 nM.

As for `C[C@H](NC(=O)C(C)(C)N1CC[C@@H](Oc2cccc(C(F)(F)F)c2)C1)c1ccc(S(C)(=O)=O)cc1` [Example 204, 2-Methyl-N—((S)-1-(4-(methylsulfonyl)phenyl)ethyl)-2-((R)-3-(3-(trifluoromethyl)phenoxy)pyrrolidin-1-yl)propanamide, hydrochloride], the 50% inhibitory concentration (IC50) was less than 1000 nM.

`C[C@H](NC(=O)C1(N2CC[C@@H](Oc3cccc(C(F)(F)F)c3)C2)CCOCC1)c1ccc(-c2nn[nH]n2)cc1` [Example 175, N—((S)-1-(4-(2H-Tetrazol-5-yl)phenyl)ethyl)-4-((R)-3-(3-(trifluoromethyl)phenoxy)pyrrolidin-1-yl)tetrahydro-2H-pyran-4-carboxamide, hydrochloride] registered an IC50 of less than 100 nM. The molecule `C[C@H](NC(=O)C1(N2CC[C@@H](Oc3cccc(Cl)c3)C2)CCC(F)(F)CC1)c1ccc(C(=O)O)cc1` [Example 156, 4-[(1S)-1-[[1-[(3R)-3-(3-Chlorophenoxy)pyrrolidin-1-yl]-4,4-difluorocyclohexane-1-carbonyl]amino]ethyl]benzoic acid, hydrochloride] displayed an IC50 of less than 100 nM.

As to `C[C@H](NC(=O)C1(N(C)CCOc2cccc(Cl)c2)CCCCC1)c1ccc(C(=O)O)cc1` [Example 57, 4-[(1S)-1-[[1-[2-(3-Chlorophenoxy)ethyl-methyl-amino]cyclohexanecarbonyl]amino]ethyl]benzoic acid, hydrochloride], the concentration for half-maximal inhibition (IC50) is less than 100 nM. Molecule `C[C@H](NC(=O)C1(N(C)CCOc2ccccc2)CCOCC1)c1ccc(C(N)=O)cc1` [Example 3, N-[(1S)-1-(4-Carbamoylphenyl)ethyl]-4-[methyl(2-phenoxyethyl)amino]tetrahydropyran-4-carboxamide] registered an IC50 of less than 1000 nM.

Molecule `CN(CCOc1cccc(C#N)c1)C1(C(=O)NC2(c3ccc(C(=O)O)cc3)CC2)CCOCC1` [Example 46, 4-[1-[[4-[2-(3-Cyanophenoxy)ethyl-methyl-amino]tetrahydropyran-4-carbonyl]amino]cyclopropyl]benzoic acid, hydrochloride] showed an IC50 of less than 1000 nM. As to `C[C@H](NC(=O)C1(c2cccc(OCc3ccccc3)c2)CCOCC1)c1ccc(C(=O)O)cc1` [Example 99, 4-[(1S)-1-[[4-(3-Benzyloxyphenyl)tetrahydropyran-4-carbonyl]amino]ethyl]benzoic acid], the IC50 is less than 1000 nM. `C[C@H](NC(=O)C1(N2CC[C@@H](Oc3cccc(C(F)(F)F)c3)C2)CCOCC1)c1ccc(-c2ccn[nH]2)cc1` [Example 177, N—((S)-1-(4-(1H-Pyrazol-5-yl)phenyl)ethyl)-4-((R)-3-(3-(trifluoromethyl)phenoxy)pyrrolidin-1-yl)tetrahydro-2H-pyran-4-carboxamide, hydrochloride] came in with an IC50 of less than 100 nM. For `C[C@H](NC(=O)C(C)(C)N1CC[C@@H](Oc2cccc(C(F)(F)F)c2)C1)c1ccc(S(N)(=O)=O)cc1` [Example 203, 2-Methyl-N—((S)-1-(4-sulfamoylphenyl)ethyl)-2-((R)-3-(3-(trifluoromethyl)phenoxy)pyrrolidin-1-yl)propanamide, hydrochloride] the value was less than 1000 nM. In turn, `C[C@H](NC(=O)C1(c2ccc(OCCc3ccccc3)cc2)CCOCC1)c1ccc(C(=O)O)cc1` [Example 94] registered an IC50 of less than 1000 nM.

In the case of `C[C@H](NC(=O)C1(c2ccc(OCCC3CCCCC3)cn2)CCCC1)c1ccc(C(=O)O)cc1` [Example 128, 4-[(1S)-1-[[1-[5-(2-Cyclohexylethoxy)-2-pyridyl]cyclopentanecarbonyl]amino]ethyl]benzoic acid], the IC50 was less than 1000 nM.
